Test results as given in patent publication US9173951B2, “Carbohydrate-based drug delivery polymers and conjugates thereof” (NEKTAR THERAPEUTICS, priority 2008, dated 2015).

System: db/db diabetic mice
Test: Blood glucose levels in db/db diabetic mice after i.p. injection
Type: in vivo
Description: Blood glucose levels were measured At different time points after dosing.
Study Procedure: Animals were acclimated to researcher's handling procedures. Baseline glucose levels were measured prior to drug administration. Outlier animals with glucose level <300 or >600 mg/dL were excluded from the study. Animals were assigned randomly to different groups, as follows:
At different time points (1, 2, 4, 8, and 24 hrs), blood was collected by tail clipping, and glucose level was measured using a One Touch® Ultra glucometer (Johnson & Johnson; Life Scan Ltd.)

dextran-butyrALD-40K-insulin [20b]
Glucose level, mean (250 ug/mouse ip, 1 hr): 263+39 mg/dL | reduction of glucose level vs time 0 (250 ug/mouse ip, 1 hr): 47% | Glucose level, mean (250 ug/mouse ip, 1 hr, listed as Dex-Ins): 263 mg/dL | Glucose level, mean (250 ug/mouse ip, 2 hr): 192+36 mg/dL | reduction of glucose level vs time 0 (250 ug/mouse ip, 2 hr): 61% | Glucose level, mean (250 ug/mouse ip, 2 hr, listed as Dex-Ins): 192 mg/dL | Glucose level, mean (250 ug/mouse ip, 4 hr): 462 mg/dL | Glucose level, mean (250 ug/mouse ip, 8 hr): 494 mg/dL | Glucose level, mean (250 ug/mouse ip, 24 hr): 517 mg/dL | Glucose level, mean (250 ug/mouse ip, time 0 (baseline)): 495+32 mg/dL | Glucose level, mean (250 ug/mouse ip, time 0 (baseline), listed as Dex-Ins): 495 mg/dL

insulin
Glucose level, mean (5 ug/mouse ip, 1 hr): 265 mg/dL | reduction of glucose level vs time 0 (5 ug/mouse ip, 1 hr): 48% | Glucose level, mean (5 ug/mouse ip, 2 hr): 352 mg/dL | reduction of glucose level vs time 0 (5 ug/mouse ip, 2 hr): 31% | Glucose level, mean (5 ug/mouse ip, 4 hr): 587 mg/dL | Glucose level, mean (5 ug/mouse ip, 8 hr): 538 mg/dL | Glucose level, mean (5 ug/mouse ip, 24 hr): 538 mg/dL | Glucose level, mean (5 ug/mouse ip, time 0 (baseline)): 510 mg/dL | Glucose level, mean (50 ug/mouse ip, 1 hr): 210 mg/dL | reduction of glucose level vs time 0 (50 ug/mouse ip, 1 hr): 53% | Glucose level, mean (50 ug/mouse ip, 2 hr): 150 mg/dL | reduction of glucose level vs time 0 (50 ug/mouse ip, 2 hr): 67% | Glucose level, mean (50 ug/mouse ip, 4 hr): 550 mg/dL | Glucose level, mean (50 ug/mouse ip, 8 hr): 558 mg/dL | Glucose level, mean (50 ug/mouse ip, 24 hr): 541 mg/dL | Glucose level, mean (50 ug/mouse ip, time 0 (baseline)): 445 mg/dL
